# Data from patent US20240299542A1, “NATURAL KILLER CELLS ENGINEERED TO REDUCE OR ELIMINATE CBL-B AND USES THEREOF” (City of Hope, priority 2021, published 2024).
# B1: IL-12: Recombinant human IL-12 purchased from Miltenyi Biotec (protein, UniProt P29459 23-219; P29460 23-328, looked up)
# Interleukin-12 subunit alpha: RNLPVATPDPGMFPCLHHSQNLLRAVSNMLQKARQTLEFYPCTSEEIDHEDITKDKTSTVEACLPLELTKNESCLNSRETSFITNGSCLASRKTSFMMALCLSSIYEDLKMYQVEFKTMNAKLLMDPKRQIFLDQNMLAVIDELMQALNFNSETVPQKSSLEEPDFYKTKIKLCILLHAFRIRAVTIDRVMSYLNAS
# Interleukin-12 subunit beta: IWELKKDVYVVELDWYPDAPGEMVVLTCDTPEEDGITWTLDQSSEVLGSGKTLTIQVKEFGDAGQYTCHKGGEVLSHSLLLLHKKEDGIWSTDILKDQKEPKNKTFLRCEAKNYSGRFTCWWLTTISTDLTFSVKSSRGSSDPQGVTCGAATLSAERVRGDNKEYEYSVECQEDSACPAAEESLPIEVMVDAVHKLKYENYTSSFFIRDIIKPDPPKNLQLKPLKNSRQVEVSWEYPDTWSTPHSYFSLTFCVQVQGKSKREKKDRVFTDKTSATVICRKNASISVRAQDRYYSSSWSEWASVPCS
# B2: IL-7: Recombinant human IL-7 purchased from Miltenyi Biotec (protein, UniProt P13232 26-177, looked up)
# Interleukin-7: DCDIEGKDGKQYESVLMVSIDQLLDSMKEIGSNCLNNEFNFFKRHICDANKEGMFLFRAARKLRQFLKMNSTGDFDLHLLKVSEGTTILLNCTGQVKGRKPAALGEAQPTKSLEENKSLKEQKKLNDLCFLKRLLQEIKTCWNKILMGTKEH
# Experiments:
# Cbl-b [1] = test: Cbl-b protein by immunoblot after inhibitor pretreatment and K562 co-culture of primary NK cells; assay type: cell-based, human; settings: 10 uM, 90 min pretreatment, 24 h co-culture with K562 (E/T=10:1), vs vehicle control
# Description: FIG. 7A Primary NK cells were pretreated with AZD1480 (10 uM), CP-690550 (10 uM) or Afuresertib (10 uM) for 90 min prior to a 24 h cocultured with K562 cells (E/T=10:1). The immunoblot data are representative of 3 donors in a similar fashion. Densitometric quantification assessing the ratio of Cbl-b protein levels to β-actin protein levels for 3 donors is summarized in FIG. 7B. *P<0.05, **P<0.01; ns, not significant. Data are presented as mean±SEM.
# (§1) Immunoblotting. Cells were harvested and suspended in RIPA lysis buffer (Thermo Fisher Scientific) on ice for 20 minutes. Equal amount of protein was resolved by 5-15% Criterion TGX gel (Bio-Rad) and then transferred onto a Nitrocellulose (NC) or PVDF membrane (Thermo Fisher Scientific). The membrane was incubated with a primary antibody at 4° C. overnight and an IRDye secondary antibody (Li-COR Biosciences) for 1 hour at room temperature. The immunoblots were visualized with Odyssey CLx Imager (Li-COR Biosciences). Densitometric analysis was performed to quantify intensity of gel bands with Image J (National Institutes of Health).
# (§2) Since IL-15 utilizes select JAK-STAT proteins to initiate cellular activation, we pretreated primary NK cells with the JAK3 inhibitor CP-690550 (22) or the JAK1/2 inhibitor AZD1480 (23) in increasing concentrations prior to IL-15 stimulation then Cbl-b expression level was evaluated. […] As K562 cells were also able to induce expression of Cbl-b in primary human NK cells (FIG. 1B), we repeated the inhibitor experiments under the K562 cell stimulation.
# Cbl-b [2] = test: Cbl-b protein by immunoblot after JAK or AKT inhibitor pretreatment and IL-15/IL-2 activation of primary NK cells; assay type: cell-based, human
# Description: FIGS. 2A-2E depict the results of a study showing that JAK-STAT and AKT pathways mediate upregulation of Cbl-b in NK cells. (FIG. 2A) Primary human NK cells were pretreated with the JAK3 inhibitor CP-690550 and the JAK1/2 inhibitor AZD1480 at various concentrations for 90 min prior to a 24 h activation by IL15 (10 ng/ml). NK cells were then harvested for quantification of Cbl-b protein expression by immunoblot analysis. Data are representative of 6 donors performed in a similar fashion. Densitometric quantification assessing the ratio of the Cbl-b protein to β-actin protein levels for 6 donors is summarized in (FIG. 2B) and (FIG. 2C). […] Data are representative of 5 donors performed in a similar fashion. Densitometric quantification assessing the ratio of the Cbl-b protein levels to β-actin protein levels for 5 donors is summarized in (FIG. 2E). *P<0.05, **P<0.01, ***P<0.001 by One-way ANOVA or Student's two-tailed paired t-test. Data are presented as mean±SEM.
# as §1, §2
# Cbl-b [3] = test: Cbl-b protein by immunoblot after stimulation of primary human NK cells with cytokines or activating antibody; assay type: cell-based; settings: primary human NK cells, 24 h cytokine stimulation, compared to resting NK cells without cytokines
# Description: (FIG. 1B) Enriched primary human NK cells were co-cultured with the K562 myeloid leukemia cell line (E/T ratio=10:1) for 24 h followed by immunoblot analysis. Summary data are from three independent experiments. (FIG. 1C) Primary human NK cells were treated with different concentrations of IL-15 for 24 h followed by immunoblot analysis (n=5 donors). (FIG. 1D) Equal numbers of purified CD56^+ human NK cells, CD56^bright NK cells and CD56^dim NK cells were sorted from peripheral blood mononuclear cells isolated by Ficoll, cultured and stimulated with IL-15 (20 ng/ml for 24 h) followed by immunoblot analysis. The data are representative of three independent experiments. Med, medium only; *P<0.05, **P<0.01 by two-tailed unpaired t-test or One-way ANOVA; ns, not significant. Data are presented as mean±SEM.
# FIG. 6A Enriched primary human NK cells were cocultured with Molm-13 or MV4-11 leukemia cell lines (E/T ratio=10:1) for 24 h prior to assessment of Cbl-b by immunoblot analysis. […] FIG. 6B Enriched primary human NK cells were cultured overnight with an anti-NKG2D activating antibody (clone 1D11) (10 μg/ml) or mouse IgG (10 μg/ml) as control prior to assessment of Cbl-b by immunoblot analysis. […] Data are shown summarizes four independent experiments. […] Data are shown summarizes five independent experiments. FIG. 6E The expression of Cbl-b was assessed by qRT-PCR after primary human NK cells were incubated with K562 cells (E/T ratio=10:1) for 24 h. Data are shown summarizes five independent experiments. *P<0.05, **P<0.01, compared to the shortest time point. Data are presented as mean±SEM.
# as §1
# We assessed the expression of Cbl-b protein in primary human NK cells enriched from the blood of healthy donors in response to 24-hour stimulation by different cytokines. […] Since certain tumor cells can trigger NK cell activation, we co-cultured NK cells for 24 h with different tumor cell lines in order to assess this effect on the expression of Cbl-b.
# IFN-γ [4] = test: Intracellular IFN-γ flow cytometry of siRNA-transduced NK cells; assay type: cell-based, human; settings: IL-15 (10 ng/ml) 24 h, n=5 donors
# Description: (§3) FIGS. 4A-4D depict the results of a study showing that downregulation of Cbl-b increases IFN-γ secretion in IL-15-activated primary human NK cells. (FIG. 4A) RNAseq was conducted using primary human NK cells transduced with either Cbl-b siRNA or Scr siRNA without or with incubation in IL-15 (10 ng/ml) for 16 h (4 donors for each group). […] (FIG. 4B) qRT-PCR was performed to quantify the mRNA levels of IFN-γ (n=6 donors) after IL-15 (10 ng/ml) 6 h stimulation. (FIG. 4C) The percentage of intracellular IFN-γ+ cells in un-transduced NK cells or those transduced with Cbl-b siRNA or Scr siRNA, each activated with IL-15 (10 ng/ml) for 24 h (11.5% vs 4.338%; P=0.0008; n=5 donors). (FIG. 4D) Supernatants were collected after IL-15 (10 ng/ml) for 24 h and IFN-γ concentrations measured by ELISA (18115 pg/ml vs 882.5 pg/ml; P=0.0099; n=7 donors). Scr-scrambled; *P<0.05, **P<0.01, ***P<0.001 by Student's two-tailed paired t-test or One-way ANOVA; ns, not significant. Data presented as mean±SEM.
# FIGS. 9B-9D show intracellular flow cytometric analysis of CD56+ primary human NK cells transduced with Scr siRNA or transduced with Cbl-b siRNA, incubated with IL-18 (10 ng/ml), IL-12 (10 ng/ml) or IL-18 (10 ng/ml) plus IL-12 (10 ng/ml) for 24 h. Scr, scrambled; *P<0.05, ns, not significant. Data are presented as mean±SEM.
# Flow cytometry. To determine protein cell surface expression via flow cytometry, cells were stained with monoclonal antibodies at room temperature for 20 minutes and washed with FACS buffer prior to analysis using a Fortessa X-20 flow cytometer (BD Biosciences). For IFN-γ intracellular flow cytometric analysis, […] GolgiPlug (BD Biosciences) was added for 4 h before cell harvest; cells were then permeabilized and fixed using a Cytofix/Cytoperm Fixation/Permeabilization Solution Kit (BD Biosciences), followed by analysis with a Fortessa X-20 flow cytometer. Intracellular flow cytometric analysis of Mertk was performed similarly except that GolgiPlug was not added. Data was analyzed by using Flowjo V10 software (Tree Star, Ashland, OR, USA).
# (§4) To further explore how Cbl-b regulates the functions of primary human NK cells, we performed RNA-seq analyses using enriched primary NK cells from healthy donors transduced with Cbl-b siRNA or Scr siRNA without or with IL-15 treatment for 16 h (n=4 in each group). […] The intracellular results were supported by assessment IFN-γ secretion into the supernatant, in that IL-15-activated primary human NK cells transduced with Cbl-b siRNA expressed 10-fold higher levels of IFN-γ compared to NK cells transduced with Scr siRNA (FIG. 4D).
# IFN-γ [5] = test: IFN-γ in supernatants by ELISA; assay type: cell-based, human; settings: IL-15 (10 ng/ml) 24 h, n=7 donors
# Description: as §3
# (§5) ELISA. Primary NK cells were plated in an equivalent number of 100,000 cells/well in a 96-well plate in RPMI and supplemented with 10% FBS. Cells were treated with recombinant human IL-15 (10 ng/ml) for 24 h, and cell-free culture supernatant was collected and frozen at −80° C. for later use. IFN-γ concentration was measured by ELISA using anti-IFN-γ antibody from Thermo Fisher Scientific. Granzyme B concentration was measured by ELISA kit purchased from R&D.
# as §4
# granzyme B = test: Granzyme B protein in supernatants by ELISA; assay type: cell-based, human
# Description: FIGS. 3A-3E depict the results of a study showing that downregulation of Cbl-b enhances the cytotoxicity of primary human NK cells. (FIGS. 3A and 3B) Primary human NK cells transduced with Cbl-b siRNA or Scr siRNA for 24 h were stimulated without (FIG. 3A) or with (FIG. 3B) a low concentration of IL-15 (2 ng/ml) for 16 h, then co-cultured with ^51Cr labeled Molm-13, MV4-11 or EOL-1 leukemia cell lines for 4 h, followed by quantification of specific tumor cell lysis. Each experiment was repeated with 6 different normal donors. (FIG. 3C) qRT-PCR was performed to quantify the granzyme B (GZMB) mRNA levels (n=8 donors) in siRNA- and Scr siRNA-transduced primary human NK cells incubated without or with IL-15 (10 ng/ml) for 16 h. (FIG. 3D) The concentration of the granzyme B protein in the supernatants of Cbl-b siRNA- and Scr siRNA-transduced primary human NK cells incubated without (688.1 pg/ml vs 525.4 pg/ml; P=0.0232) or with IL-15 (10 ng/ml) for 24 h (8789 pg/ml vs 3397 pg/ml; P=0.0232) was measured by ELISA (n=8 donors). (FIG. 3E) The level of granzyme B protein in Cbl-b siRNA- and Scr siRNA-transduced primary human NK cells incubated without or with IL-15 (10 ng/ml) for 24 h was measured by immunoblot analysis. The data are representative of three experiments. Scr-scrambled; *P<0.05, **P<0.01, ***P<0.001, ****P<0.0001 by One-way or Two-way ANOVA; ns, not significant. Data presented as mean±SEM.
# as §5
# Both groups were next incubated without or with IL-15 and co-cultured with ^51Cr labeled MV4-11, Molm-13, or EOL-1 leukemia cell lines, followed by assessment of specific lysis measured after 4 h of co-culture.
molecule,measurement,setting,value
Cc1cc(Nc2nc(N[C@@H](C)c3ncc(F)cn3)ncc2Cl)n[nH]1 [AZD1480],Cbl-b expression after inhibitor pretreatment under K562 stimulation,Cbl-b [1],only the AKT1/2/3 inhibitor Afuresertib rather than either of the two JAK inhibitors
same,expression of Cbl-b protein after inhibitor pretreatment,"Cbl-b [2]; 90 min pretreatment at various concentrations, then IL-15 (10 ng/ml) 24 h, vs vehicle control",significant decrease
IL-21: Recombinant human IL-21 purchased from Miltenyi Biotec,expression of Cbl-b protein (ratio to β-actin),Cbl-b [3],no significant change
Cn1ncc(Cl)c1-c1cc(C(=O)N[C@H](CN)Cc2cccc(F)c2)sc1Cl [Afuresertib],Cbl-b expression after inhibitor pretreatment under K562 stimulation,Cbl-b [1],significant downregulation
same,expression of Cbl-b protein after inhibitor pretreatment,"Cbl-b [2]; 10 uM, 90 min pretreatment, then IL-15 (10 ng/ml) or IL-2 (150 IU/ml) 24 h",nearly identical results
"Scr siRNA: scrambled Accell siRNA control, SEQ ID NO:2, UGGUUUACAUGUUGUGUGA (Accell modifications, chemistry not fully specified) [reference compound]",percentage of intracellular IFN-γ+ cells,IFN-γ [4],4.338%
same,IFN-γ concentration in supernatants,IFN-γ [5],882.5 pg/mL
same,concentration of granzyme B protein in supernatants,"granzyme B; with IL-15 (10 ng/ml) 24 h, n=8 donors",3397 pg/mL
same,concentration of granzyme B protein in supernatants,"granzyme B; without IL-15, n=8 donors",525.4 pg/mL
IL-18: Recombinant human IL-18 purchased from Miltenyi Biotec,expression of Cbl-b protein (ratio to β-actin),Cbl-b [3],no significant change
B1,expression of Cbl-b protein (ratio to β-actin),Cbl-b [3],no significant change
B2,expression of Cbl-b protein (ratio to β-actin),Cbl-b [3],no significant change
